For 23 molecules, ring closure, yield after HPLC, IC50 and Ki results are on record in US20210130401A1, “PEPTIDOMIMETIC INHIBITORS OF THE WDR5-MLL INTERACTION” (THE REGENTS OF THE UNIVERSITY OF MICHIGAN, priority 2017, published 2021).

Like-named read-outs stand apart in the source and are kept apart here. Starred links: 1 amine or outer side, 2 acyl side, 3 side chain; linkers in the order of their positions; H or OH if unused. Positions of bridges follow the written chain, without caps; N, C: chain ends. Non-standard residues stand in square brackets, D forms with d. Residues, ends and D or L forms follow the SMILES beside them. *: point of attachment. dαMeDab = C[C@](CCN[*:3])(N[*:1])C(=O)[*:2]; Arg(Me) = CNC(=N)NCCC[C@H](N)C(=O)O; d(αMeK) = C[C@@](N)(CCCCN)C(=O)O; dPhg = N[C@@H](C(=O)O)c1ccccc1; Phg = N[C@H](C(=O)O)c1ccccc1; αMeK = C[C@](N)(CCCCN)C(=O)O; Isobutyryl = CC(C)C(=O)*; dAbu = CC[C@@H](N)C(=O)O; Abu = CC[C@H](N)C(=O)O

What is called IC50 is the concentration that inhibits the measured activity by half. Usually Ki stands for the equilibrium dissociation constant of an inhibitor or competing ligand from its target.

Data set [1] deals with MOLM-13 leukemia cells carrying MLL-AF9 fusion. As to the kind of experiment: cell viability assay (WST-8), MOLM-13. In kind it is cell-based. Conditions: Homo sapiens, MOLM-13, 96 h, read-out: Cell Growth Inhibition IC50 (μM) MOLM-13.
In a further data set the target is T1, WDR5 (Homo sapiens, UniProt P61964).
T1 construct: N-terminal His-tagged WDR5 protein (residues 24-334), named WDR5Δ23; made in house; host or cells: E. coli Rosetta 2 (DE3)
Briefly: fluorescence polarization (FP) based competitive binding assay to WDR5 protein. Conditions: for Ki: calculated from IC50 by published equation, read-out: Binding Affinity to WDR5 Ki ± SD; for IC50: read-out: Binding Affinity to WDR5 IC50 ± SD.

The subject of data set [2] is MV4;11 leukemia cells carrying MLL-AF4 fusion. As to the kind of experiment: cell viability assay (WST-8), MV4;11. Conditions: Homo sapiens, MV4-11, 96 h, read-out: Cell Growth Inhibition IC50 (μM) MV-4-11. The data set is classed as cell-based.
Description: To assess cell viability, MOLM-13 leukemia cells carrying MLL-AF9 fusion, MV4;11 leukemia cells carrying MLL-AF4 fusion or HL-60 leukemia cells carrying no MLL fusion were seeded 1×10^4 cell/well in 96-well plates and treated with an inhibitor for 4 days at different concentrations, in culture media containing 0.2% DMSO as the final concentration. Cell viability was determined using the WST-8 cell proliferation assay kit (Dojindo Molecular Technologies) according to manufacturer's instructions. Three independent experiments in triplicates were performed.
Data set [3] deals with HL-60 leukemia cells carrying no MLL fusion. As to the kind of experiment: cell viability assay (WST-8), HL-60. The data set is classed as cell-based. Conditions: Homo sapiens, HL-60, 96 h, read-out: Cell Growth Inhibition IC50 (μM) HL-60. Here is the method: Cell viability was determined using the WST-8 cell proliferation assay kit (Dojindo Molecular Technologies) according to manufacturer's instructions. Three independent experiments in triplicates were performed.
A general note: Tetrazolium dyes change colour on reduction, which living cells bring about.

Setting [4] is: amide bond, 15-membered ring, HATU/DIEA, DMF, with chain assembly.
Setting [5] is: amide bond, 14-membered ring, HATU/DIEA, DMF, with chain assembly.

Description for WDR5: The plates were incubated at room temperature on a shaker for 3h, and then the mP values were measured using the Tecan Infinite M-1000 plate reader (Tecan U.S., Research Triangle Park, N.C.).

For `CC[C@@H]1NC(=O)[C@H](CCCN/C(=N\C)NC)NC(=O)[C@](C)(NC(=O)C(C)C)CC=CCNC(=O)[C@@H](c2ccccc2)NC1=O`, where the note is “from (R)—N-((8S,11S,14R,Z)-11-ethyl-3-(methylamino)-9,12,15-trioxo-14-phenyl-2,4,10,13,16-pentaazanonadeca-2,18-dien-8-yl)-2-isobutyramido-2-methylpent-4-enamide, rcm bond, 16-membered ring, Hoveyda-Grubbs II (0.5 eq), CH2Cl2, 25.0 °C, 3 steps”, the ring closure, yield after HPLC is 27%.
As for `CC[C@@H]1NC(=O)[C@H](CCCN/C(=N\C)NS(=O)(=O)c2c(C)c(C)c3c(c2C)CC(C)(C)O3)NC(=O)[C@](C)(NC(=O)C(C)C)CC=CCNC(=O)[C@@H](c2ccccc2)NC1=O`, the ring closure, yield after HPLC (from (R)—N-((8S,11S,14R,E)-11-ethyl-9,12,15-trioxo-3-(2,2,4,6,7-pentamethyl-2,3-dihydrobenzofuran-5-sulfonamido)-14-phenyl-2,4,10,13,16-pentaazanonadeca-2,18-dien-8-yl)-2-isobutyramido-2-methylpent-4-enamide, rcm bond, 16-membered ring, Hoveyda-Grubbs II (0.5 eq), CH2Cl2, 25.0 °C, 3 steps) stood at 75%.
`CC[C@@H]1NC(=O)[C@H](CCCNC(=N)NS(=O)(=O)c2c(C)c(C)c3c(c2C)CC(C)(C)O3)NC(=O)[C@](C)(NC(=O)C(C)C)CC=CCCCCCNC(=O)[C@@H](c2ccccc2)NC1=O` registered a ring closure, yield after HPLC (from iPrCO-(R)-αMe-allylGly-Arg(Pbf)-Abu-dPhg-NH-(hept-6-enyl)?, rcm bond, 20-membered ring, Hoveyda-Grubbs II (0.5 eq), CH2Cl2, 25.0 °C, 3 steps) of 27%.
The molecule `CC[C@@H]1NC(=O)[C@H](CCCNC(=N)NS(=O)(=O)c2c(C)c(C)c3c(c2C)CC(C)(C)O3)NC(=O)[C@](C)(NC(=O)C(C)C)CC=CCCCNC(=O)[C@@H](c2ccccc2)NC1=O` came in with a ring closure, yield after HPLC (from iPrCO-(R)-αMe-allylGly-Arg(Pbf)-Abu-dPhg-NH-(pent-4-enyl)?, rcm bond, 18-membered ring, Hoveyda-Grubbs II (0.5 eq), CH2Cl2, 25.0 °C, 3 steps) of 46%.
The molecule `CC[C@@H]1NC(=O)[C@H](CCCNC(=N)NS(=O)(=O)c2c(C)c(C)c3c(c2C)CC(C)(C)O3)NC(=O)[C@](C)(NC(=O)C(C)C)CC=CCCNC(=O)[C@@H](c2ccccc2)NC1=O` displayed a ring closure, yield after HPLC (from iPrCO-(R)-αMe-allylGly-Arg(Pbf)-Abu-dPhg-NH-(but-3-enyl)?, rcm bond, 17-membered ring, Hoveyda-Grubbs II (0.5 eq), CH2Cl2, 25.0 °C, 3 steps) of 28%.
As to `CC[C@@H]1NC(=O)[C@H](CCCNC(=N)NS(=O)(=O)c2c(C)c(C)c3c(c2C)CC(C)(C)O3)NC(=O)[C@](C)(NC(=O)C(C)C)CC=CCN(C)C(=O)[C@@H](c2ccc(Cl)cc2)NC1=O`, the ring closure, yield after HPLC (from (R)—N-((6S,9S,12R)-12-(4-chlorophenyl)-9-ethyl-1-imino-14-methyl-7,10,13-trioxo-1-(2,2,4,6,7-pentamethyl-2,3-dihydrobenzofuran-5-sulfonamido)-2,8,11,14-tetraazaheptadec-16-en-6-yl)-2-isobutyramido-2-methylpent-4-enamide, rcm bond, 16-membered ring, Hoveyda-Grubbs II (0.5+0.5 eq), CH2Cl2, 45.0 °C, 3 steps) is 11%.
For the molecule `CC[C@@H]1NC(=O)[C@H](CCCNC(=N)NS(=O)(=O)c2c(C)c(C)c3c(c2C)CC(C)(C)O3)NC(=O)[C@](C)(NC(=O)C(C)C)CC=CCNC(=O)[C@@H](c2ccccc2)NC1=O`, the ring closure, yield after HPLC (from iPrCO-(R)-αMe-allylGly-Arg(Pbf)-Abu-dPhg-NH-allyl?, rcm bond, 16-membered ring, Hoveyda-Grubbs II (0.5 eq), CH2Cl2, 25.0 °C, 3 steps) is 53%.
Consider `CC[C@@H]1NC(=O)[C@H](CCCNC(=N)N)NC(=O)[C@](C)(NC(=O)C(C)C)CCNC(=O)[C@@H](c2ccccc2)NC1=O` [Cpd. No. 4, N-((3R,6S,9S,12R)-6-ethyl-9-(3-guanidinopropyl)-12-methyl-2,5,8,11-tetraoxo-3-phenyl-1,4,7,10-tetraazacyclotetradecan-12-yl)isobutyramide] (Isobutyryl-[dαMeDab]R[Abu][dPhg]; lactam 1-C), for which the half-inhibitory concentration (IC50) in data set [1] (4 days treatment) is 0.28 ± 0.02 µM; on WDR5, 0.00108 ± 0.00012 µM; in data set [2] (4 days treatment), 0.46 ± 0.02 µM; in data set [3] (4 days treatment) it was 17.4 µM. Also, on WDR5, the Ki is < 0.001 µM.
Turning to `CC[C@@H]1NC(=O)[C@H](CCCNC(=N)NC)NC(=O)[C@](C)(NC(=O)C(C)C)CCNC(=O)[C@H](c2ccccc2)NC1=O` [Cpd. No. 62, N-((3S,6S,9S,12R)-6-ethyl-12-methyl-9-(3-(3-methylguanidino)propyl)-2,5,8,11-tetraoxo-3-phenyl-1,4,7,10-tetraazacyclotetradecan-12-yl)isobutyramide] (Isobutyryl-[dαMeDab][Arg(Me)][Abu][Phg]; lactam 1-C), the figures for the IC50 (in data set [1] (4 days treatment); on WDR5; in data set [2] (4 days treatment)) were 14.3 ± 0.9 µM, 0.002 ± 0.0001 µM and 35 ± 4.4 µM, respectively. In addition, the Ki at WDR5 is < 0.001 µM.
Turning to `CC[C@@H]1NC(=O)[C@H](CCCNC(=N)N)NC(=O)[C@](C)(NC(=O)C(C)C)CCCCNC(=O)[C@@H](c2ccccc2)NC1=O` [Cpd. No. 64, N-((3R,6S,9S,12R)-6-ethyl-9-(3-guanidinopropyl)-12-methyl-2,5,8,11-tetraoxo-3-phenyl-1,4,7,10-tetraazacyclohexadecan-12-yl)isobutyramide] (Isobutyryl-[d(αMeK)]R[Abu][dPhg]; lactam 1-C), the IC50 in data set [3] is > 100 µM.
Turning to `CC[C@H]1NC(=O)[C@@H](CCCNC(=N)N)NC(=O)[C@@](C)(NC(=O)C(C)C)CCCCNC(=O)[C@H](c2ccccc2)NC1=O` [Cpd. No. 70, N-((3S,6R,9R,12S)-6-ethyl-9-(3-guanidinopropyl)-12-methyl-2,5,8,11-tetraoxo-3-phenyl-1,4,7,10-tetraazacyclohexadecan-12-yl)isobutyramide] (Isobutyryl-[αMeK][dR][dAbu][Phg]; lactam 1-C), the IC50 in data set [1], in data set [2] and in data set [3] was > 100 µM each time.
In turn, “N-((3R,6S,9S,12R)-6-ethyl-9-(3-guanidinopropyl)-2,5,8,11-tetraoxo-3-phenyl-1,4,7,10-tetraazacyclohexadecan-12-yl)isobutyramide” showed a ring closure, yield after HPLC (amide bond, 16-membered ring, HATU/DIEA, DMF, 5.0 mM, with chain assembly) of 12.7%.
For the molecule “N-((3R,6S,9S,12R)-6-ethyl-9-(3-guanidinopropyl)-2,5,8,11-tetraoxo-3-phenyl-1,4,7,10-tetraazacyclopentadecan-12-yl)isobutyramide”, the ring closure, yield after HPLC under setting [4] amounted to 21.5%.
Under setting [5], “N-((3R,6S,9S,12R)-6-ethyl-9-(3-guanidinopropyl)-2,5,8,11-tetraoxo-3-phenyl-1,4,7,10-tetraazacyclotetradecan-12-yl)isobutyramide” registered a ring closure, yield after HPLC of 21.7%.
Where the note is “amide bond, 13-membered ring, HATU/DIEA, DMF, with chain assembly”, “N-((3R,6S,9S,12R)-6-ethyl-9-(3-guanidinopropyl)-2,5,8,11-tetraoxo-3-phenyl-1,4,7,10-tetraazacyclotridecan-12-yl)isobutyramide” registered a ring closure, yield after HPLC of 24.5%.
Consider “N-((3R,6S,9S,12R)-6-ethyl-9-(3-guanidinopropyl)-12-methyl-2,5,8,11-tetraoxo-3-phenyl-1,4,7,10-tetraazacyclopentadecan-12-yl)isobutyramide”, for which, under setting [4], the ring closure, yield after HPLC stood at 19.4%.
Take “N-((3R,6S,9S,12R)-6-ethyl-9-(3-guanidinopropyl)-12-methyl-2,5,8,11-tetraoxo-3-phenyl-1,4,7,10-tetraazacyclotetradecan-12-yl)isobutyramide”: the ring closure, yield after HPLC under setting [5] is 8.7%.
On to “N-((3R,6S,9S,12R)-6-ethyl-12-methyl-2,5,8,11-tetraoxo-3-phenyl-9-(3-ureidopropyl)-1,4,7,10-tetraazacyclotetradecan-12-yl)isobutyramide”, for which the ring closure, yield after HPLC under setting [5] was 6%.
The same measure, in the same setting: to “N-((3R,6S,9S,12R)-6-ethyl-12-methyl-9-(3-(3-methylguanidino)propyl)-2,5,8,11-tetraoxo-3-phenyl-1,4,7,10-tetraazacyclotetradecan-12-yl)isobutyramide” belongs 15.4%; to “N-((3R,6S,12R)-6-ethyl-12-methyl-2,5,8,11-tetraoxo-3-phenyl-9-(3-phenylpropyl)-1,4,7,10-tetraazacyclotetradecan-12-yl)isobutyramide”, 7%; to “N-((3R,6S,12R)-6-ethyl-12-methyl-2,5,8,11-tetraoxo-9-phenethyl-3-phenyl-1,4,7,10-tetraazacyclotetradecan-12-yl)isobutyramide”, 7%.
Take “N-((3R,6S,12R)-9-(3-amino-3-oxopropyl)-6-ethyl-12-methyl-2,5,8,11-tetraoxo-3-phenyl-1,4,7,10-tetraazacyclotetradecan-12-yl)isobutyramide”: the ring closure, yield after HPLC under setting [5] came out at 17%.
The same measure, in the same setting: to “N-((3S,6S,9S,12R)-6-ethyl-12-methyl-9-(3-(3-methylguanidino)propyl)-2,5,8,11-tetraoxo-3-phenyl-1,4,7,10-tetraazacyclotetradecan-12-yl)isobutyramide” belongs 7%.
